Test results: patent US8575203B2, “Chemical compounds” (Boehringer Ingelheim International GmbH, priority 2010, dated 2013)

Molecular target: Recombinant human PDK1 enzyme (aa 52-556) (Homo sapiens (Human), UniProt O15530)
Assay: PDK1 kinase assay
Format: biochemical
Details: in vitro kinase assay, His6-PDK1 (aa 52-556), PDKtide, P33-ATP
How it was run: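 Radiometric filter-binding read-out after H3PO4 stop. The reaction ran 90 min at RT, started with a 25 μM ATP/γ-33P-ATP solution, after 30 min RT preincubation of the compound series (10 μM top, 1:5 dilutions) with N-His6 PDK1 aa 52-556 (insect-cell expressed, 3.33 ng/well) and 25 μM final PDKtide.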

Sequence of Recombinant human PDK1 enzyme (aa 52-556) (O15530 52-556): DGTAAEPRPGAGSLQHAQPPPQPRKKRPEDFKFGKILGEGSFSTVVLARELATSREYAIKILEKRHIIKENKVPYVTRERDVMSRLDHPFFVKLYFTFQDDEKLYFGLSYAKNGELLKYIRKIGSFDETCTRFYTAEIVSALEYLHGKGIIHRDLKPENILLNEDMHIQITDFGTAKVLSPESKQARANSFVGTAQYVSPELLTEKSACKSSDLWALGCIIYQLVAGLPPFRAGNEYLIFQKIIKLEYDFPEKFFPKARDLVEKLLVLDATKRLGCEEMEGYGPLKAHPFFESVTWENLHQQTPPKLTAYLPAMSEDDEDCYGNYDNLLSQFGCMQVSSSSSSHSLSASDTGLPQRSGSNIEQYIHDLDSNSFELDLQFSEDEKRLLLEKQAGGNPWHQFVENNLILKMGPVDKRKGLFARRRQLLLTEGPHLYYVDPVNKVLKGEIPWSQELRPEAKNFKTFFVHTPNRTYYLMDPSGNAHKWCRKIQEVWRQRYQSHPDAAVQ

`CNc1c([N+](=O)[O-])cnc2ccc(C#CCNC(=O)c3cncn(Cc4ccc(F)c(F)c4)c3=O)cc12` [I-127] was tested. Which IC50 did it give?
The IC50 was 98 nM.

How did the IC50 turn out when `O=C(NCC#Cc1ccc2ncc(N[C@H]3CC[C@H](N4CCN(CC5CC5)CC4)CC3)nc2c1)c1ccnn(Cc2ccc(F)c(F)c2)c1=O` [I-62] was run?
The IC50 was 2 nM.

Which IC50 does the source give for `CNc1cnc2ccc(C#CCNC(=O)c3cncn(Cc4ccc(F)c(F)c4)c3=O)cc2n1` [I-14] here?
Its IC50 is 27 nM.

With `O=C(NCC#Cc1ccc2ncnc(NCCc3ccco3)c2c1)c1cncn(Cc2ccc(F)c(F)c2)c1=O` [II-6] as the compound, how does the IC50 read?
The IC50 was 98 nM.

Which IC50 does the source give for `CC(C)NC(=O)c1cnc2ccc(C#CCNC(=O)c3cncn(Cc4ccc(F)c(F)c4)c3=O)cc2c1` [II-77] here?
Its IC50 is 53 nM.

For `CNc1ncnc2ccc(C#CCNC(=O)c3cncn(Cc4ccccc4F)c3=O)cc12` [II-53], which IC50 is on record?
Its IC50 is 486 nM.

How did the IC50 turn out when `N#Cc1cnc2ccc(C#CCNC(=O)c3cccn(Cc4ccc(F)c(F)c4)c3=O)cc2c1NCCc1ccccc1` [II-96] was run?
Its IC50 is 607 nM.

For `COCCN1CCC(Nc2cnc3ccc(C#CCNC(=O)c4cncn(Cc5ccc(F)c(F)c5)c4=O)cc3n2)CC1` [I-37], which IC50 is on record?
The IC50 was 5 nM.
